# In patent US20200188466A1, “COMPOSITIONS OF SCHISANDRA EXTRACTS AND METHODS THEREOF” (Reyoung Corporation, priority 2017, published 2020):
# Assay: in vivo
# Set-up: species or system Sprague Dawley rats
# Details: male, Sprague Dawley, rat, po, 2.4 mg/kg
# Description: 42 Male Sprague Dawley rats (weight, 220-280 g) were maintained on a 12-hour light/dark cycle with free access to water and lab chow for 10-14 hours prior to the experiment. Rats were randomly divided into 7 groups (n=6/group) and groups 2-7 received 0 mg/kg, 6.0 mg/kg, and 12.0 mg/kg, 24.0 mg/kg, 48.0 mg/kg and 60.0 mg/kg of Schisandrin A in 1% CMC-Na (300-800 cps) via oral administration, respectively. After 5 minutes, all the groups received 2.4 mg/kg of triptolide in a solution of 2% DMSO-98% Sterile Water via oral administration.
# After triptolide treatment, blood samples were collected from individual rat at 5 min, 10 min, 15 min, 20 min, 30 min, 45 min, 1 h, 2 h, 4 h, 8 h, and 24 h, respectively. Plasma was separated by centrifugation at 8000 rpm for 6 minutes at 4° C. and kept at −80° C. until analysis. Plasma homogenate was injected into LC-MS/MS for analysis.
smiles,measurement,setting,value
CC(C)[C@]12O[C@H]1[C@@H]1O[C@]13[C@]1(O[C@H]1C[C@H]1C4=C(CC[C@@]13C)C(=O)OC4)[C@@H]2O [triptolide],AUC(0-t),AUC0→t of triptolide,31.5 ± 25.4 ng·h/mL
same,AUC(0-inf),AUC0→∞ of triptolide,31.5 ± 25.4 ng·h/mL
same,Cmax,Cmax of triptolide,56.4 ± 25.1 ng/mL
same,MRT last,MRT0→t of triptolide,25.8 ± 9.6 min
same,MRT inf,MRT0→∞ of triptolide,39.6 ± 21 min
same,half-life,T1/2 of triptolide,25.2 ± 13.8 min
same,Tmax,Tmax of triptolide,9.96 ± 5.4 min
